biological target: GABA receptor complex (GRC), [35S]-TBPS binding in rat brain cortical membranes; assay: Steroid inhibition of [35S]-TBPS binding (radioligand displacement); conditions: 2 nM [35S]-TBPS, in the presence of 5 μM GABA, read-out: 35S-TBPS Radioligand Displacement (Control IC50)
Procedure: TBPS binding assays using rat brain cortical membranes in the presence of 5 μM GABA has been described (Gee et al, J. Pharmacol. Exp. Ther. 1987, 241, 346-353; Hawkinson et al, Mol. Pharmacol. 1994, 46, 977-985).
Briefly, cortices are rapidly removed following decapitation of carbon dioxide-anesthetized Sprague-Dawley rats (200-250 g). The cortices are homogenized in 10 volumes of ice-cold 0.32 M sucrose using a glass/teflon homogenizer and centrifuged at 1500×g for 10 min at 4° C. The resultant supernatants are centrifuged at 10,000×g for 20 min at 4° C. to obtain the P2 pellets. The P2 pellets are resuspended in 200 mM NaCl/50 mM Na—K phosphate pH 7.4 buffer and centrifuged at 10,000×g for 10 min at 4 OC. This ishing procedure is repeated twice and the pellets are resuspended in 10 volumes of buffer. Aliquots (100 μL) of the membrane suspensions are incubated with 2 nM [^35S]-TBPS and 5 μL, aliquots of test drug dissolved in dimethyl sulfoxide (DMSO) (final 0.5%) in the presence of 5 μM GABA. The incubation is brought to a final volume of 1.0 mL with buffer. Nonspecific binding is determined in the presence of 2 μM unlabeled TBPS and ranged from 15 to 25%. Following a 90 min incubation at room temp, the assays are terminated by filtration through glass fiber filters (Schleicher and Schuell No. 32) using a cell harvester (Brandel) and rinsed three times with ice-cold buffer. Filter bound radioactivity is measured by liquid scintillation spectrometry. Non-linear curve fitting of the overall data for each drug averaged for each concentration is done using Prism (GraphPad). […] The concentration of test compound producing 50% inhibition (IC50) of specific binding and the maximal extent of inhibition (Imax) are determined for the individual experiments with the same model used for the overall data and then the means+SEM.s of the individual experiments are calculated.
Various compounds are or can be screened to determine their potential as modulators of [^35S]-TBPS binding in vitro. These assays are or can be performed in accordance with the above discussed procedures.

Row | Structure (SMILES) | IC50 [µM]
1 | CC(=O)O[C@H]1C[C@@]2(C)[C@@H](CC[C@@H]3[C@@H]2CC[C@]2(C)/C(=C\C#N)CC[C@@H]32)C[C@@H]1O [Compound 1, (2S,3S,5S,8R,9S,10S,13S,14S,Z)-17-(cyanomethylene)-3-hydroxy-10,13-dimethyl-hexadecahydro-1H-cyclopenta[a]phenanthren-2-yl acetate] | 0.1 to 0.5
2 | C[C@]12C[C@H](OC(=O)c3ccccc3)[C@@H](O)C[C@@H]1CC[C@@H]1[C@@H]2CC[C@]2(C)[C@@H](C(=O)CO)CC[C@@H]12 [Compound 2, (2S,3S,5S,8R,9S,10S,13S,14S,17S)-3-hydroxy-17-(2-hydroxyacetyl)-10,13-dimethyl-hexadecahydro-1H-cyclopenta[a]phenanthren-2-yl benzoate] | 0.1 to 0.5
3 | CC(=O)O[C@H]1C[C@@H]2[C@H](CC[C@]3(C)/C(=C\C#N)CC[C@@H]23)[C@@]2(C)CC[C@@H](O)C[C@H]12 [Compound 3, (3R,5S,6S,8R,9S,10R,13S,14S,Z)-17-(cyanomethylene)-3-hydroxy-10,13-dimethyl-hexadecahydro-1H-cyclopenta[a]phenanthren-6-yl acetate] | 0.1 to 0.5
4 | CC(=O)O[C@H]1C[C@]2(C)/C(=C\C#N)CC[C@H]2[C@@H]2CC[C@H]3C[C@H](O)CC[C@]3(C)[C@H]21 [Compound 4, (3R,5S,8S,9S,10S,11S,13S,14S,Z)-17-(cyanomethylene)-3-hydroxy-10,13-dimethyl-hexadecahydro-1H-cyclopenta[a]phenanthren-11-yl acetate] | 0.1 to 0.5
5 | CC(=O)OC[C@]12CC[C@@H](O)C[C@@H]1CC[C@@H]1[C@@H]2CC[C@]2(C)/C(=C\C#N)CC[C@@H]12 [Compound 5, ((3R,5S,8S,9S,10R,13S,14S,Z)-17-(cyanomethylene)-3-hydroxy-13-methyl-hexadecahydro-1H-cyclopenta[a]phenanthren-10-yl)methyl acetate] | 0.1 to 0.5
6 | CC(=O)O[C@H]1C[C@@]2(C)[C@@H](CC[C@@H]3[C@@H]2CC[C@]2(C)[C@@H](C(=O)CO)CC[C@@H]32)C[C@@H]1O [Compound 6] | 0.1 to 0.5
7 | CC(=O)O[C@H]1C[C@]2(C)[C@@H](C(=O)CO)CC[C@H]2[C@@H]2CC[C@H]3C[C@H](O)CC[C@]3(C)[C@H]21 [Compound 7, (3R,5S,8S,9S,10S,11S,13S,14S,17S)-3-hydroxy-17-(2-hydroxyacetyl)-10,13-dimethyl-hexadecahydro-1H-cyclopenta[a]phenanthren-11-yl acetate] | 0.1 to 0.5
8 | CC(=O)O[C@H]1C[C@@H]2[C@H](CC[C@]3(C)[C@@H](C(C)=O)CC[C@@H]23)[C@@]2(C)CC[C@@H](O)C[C@H]12 [Compound 8, (3R,5S,6S,8R,9S,10R,13S,14S,17S)-17-acetyl-3-hydroxy-10,13-dimethyl-hexadecahydro-1H-cyclopenta[a]phenanthren-6-yl acetate] | 0.1 to 0.5
9 | CC(=O)O[C@H]1C[C@@H]2[C@H](CC[C@]3(C)[C@@H](C(=O)CO)CC[C@@H]23)[C@@]2(C)CC[C@@H](O)C[C@H]12 [Compound 9, (3R,5S,6S,8R,9S,10R,13S,14S,17S)-3-hydroxy-17-(2-hydroxyacetyl)-10,13-dimethyl-hexadecahydro-1H-cyclopenta[a]phenanthren-6-yl acetate] | 0.1 to 0.5
10 | CC(=O)OC1CC2(C)C(=CC#N)CCC2C2CCC3CC(O)CCC3C12 (centres unmarked) [Compound 11] | 0.1 to 0.5
11 | CO[C@H]1CC[C@H]2[C@@H]3CC[C@H]4C[C@H](O)CC[C@]4(COC(C)=O)[C@H]3CC[C@]12C [Compound 13] | 0.1 to 0.5
